Measurements: patent publication US20200187502A1, “MICROBIOCIDAL OXADIAZOLE DERIVATIVES” (SYNGENTA PARTICIPATIONS AG, priority 2017, published 2020)

Key:
[1] = system: Glomerella lacenarium (Colletotrichum lacenarium); test: Fungicidal activity, liquid culture, cucumber preventative (anthracnose); assay type: cell-based; conditions: 20 ppm in the applied formulation, liquid culture in PDB, inhibition of growth measured photometrically 3 to 4 days after application, compared to untreated control, read-out: disease control
How it was run: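 In liquid culture, cryo-stored conidia in potato dextrose broth were exposed to compound delivered from DMSO solution. Growth inhibition was measured photometrically after 3 to 4 days at 24° C.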

[2] = system: Puccinia recondita f. Sp. Tritici; test: Fungicidal activity, wheat leaf disc preventative (brown rust); assay type: in vivo; conditions: foliar, 200 ppm in the applied formulation, wheat leaf segments cv. Kanzler, compared to untreated control, 7 to 9 days after application, read-out: disease control
How it was run: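 Wheat cv. Kanzler leaf segments on agar were sprayed with formulated compound in water, then inoculated with spores 1 day later. Incubated at 19° C, 75% rh, 12 h light/12 h dark; percent disease control versus untreated scored 7 to 9 days after application.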

[3] = system: Puccinia recondita f. Sp. Tritici; test: Fungicidal activity, wheat leaf disc curative (brown rust); assay type: in vivo; conditions: foliar, 200 ppm in the applied formulation, wheat leaf segments cv. Kanzler, curative (applied 1 day after inoculation), compared to untreated control, 6 to 8 days after application, read-out: disease control
How it was run: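 Spray application came one day after spore inoculation of Kanzler wheat leaf segments kept on agar. Conditions: 19° C, 75% relative humidity, dark before treatment and 12 h light/12 h dark after. Efficacy = % disease control compared with untreated, 6–8 days post-application.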

CCN(Cc1ccc(-c2noc(C(F)(F)F)n2)s1)C(=O)C(=O)Cc1ccccc1 [Compound 6.43, N-ethyl-2-oxo-3-phenyl-N-[[5-[5-(trifluoromethyl)-1,2,4-oxadiazol-3-yl]-2-thienyl]methyl]propanamide]
≥ 80%: inhibition of growth at 20 ppm [1] | pest or weed control at 200 ppm [2] | pest or weed control at 200 ppm [3]

CCN(Cc1ccc(-c2noc(C(F)(F)F)n2)s1)C(=O)C(=O)c1ccco1 [Compound 6.46, N-ethyl-2-(2-furyl)-2-oxo-N-[[5-[5-(trifluoromethyl)-1,2,4-oxadiazol-3-yl]-2-thienyl]methyl]acetamide]
≥ 80%: inhibition of growth at 20 ppm [1] | pest or weed control at 200 ppm [2] | pest or weed control at 200 ppm [3]

CN(Cc1ccc(-c2noc(C(F)(F)F)n2)s1)C(=O)C(=O)c1ccccc1 [Compound 6.47, N-methyl-2-oxo-2-phenyl-N-[[5-[5-(trifluoromethyl)-1,2,4-oxadiazol-3-yl]-2-thienyl]methyl]acetamide]
≥ 80%: inhibition of growth at 20 ppm [1] | pest or weed control at 200 ppm [2] | pest or weed control at 200 ppm [3]

CN(Cc1ccc(-c2noc(C(F)(F)F)n2)s1)C(=O)C(=O)C(C)(C)C [Compound 6.48, N,3,3-trimethyl-2-oxo-N-[[5-[5-(trifluoromethyl)-1,2,4-oxadiazol-3-yl]-2-thienyl]methyl]butanamide]
≥ 80%: inhibition of growth at 20 ppm [1] | pest or weed control at 200 ppm [2] | pest or weed control at 200 ppm [3]

CCC(=O)C(=O)N(C)Cc1ccc(-c2noc(C(F)(F)F)n2)s1 [Compound 6.49, N-methyl-2-oxo-N-[[5-[5-(trifluoromethyl)-1,2,4-oxadiazol-3-yl]-2-thienyl]methyl]butanamide]
≥ 80%: inhibition of growth at 20 ppm [1] | pest or weed control at 200 ppm [2] | pest or weed control at 200 ppm [3]

CC(C)CC(=O)C(=O)N(C)Cc1ccc(-c2noc(C(F)(F)F)n2)s1 [Compound 6.51, N,4-dimethyl-2-oxo-N-[[5-[5-(trifluoromethyl)-1,2,4-oxadiazol-3-yl]-2-thienyl]methyl]pentanamide]
≥ 80%: inhibition of growth at 20 ppm [1] | pest or weed control at 200 ppm [2] | pest or weed control at 200 ppm [3]

CN(Cc1ccc(-c2noc(C(F)(F)F)n2)s1)C(=O)C(=O)c1cccs1 [Compound 6.52, N-methyl-2-oxo-2-(2-thienyl)-N-[[5-[5-(trifluoromethyl)-1,2,4-oxadiazol-3-yl]-2-thienyl]methyl]acetamide]
≥ 80%: inhibition of growth at 20 ppm [1] | pest or weed control at 200 ppm [2] | pest or weed control at 200 ppm [3]

CCC(=O)C(=O)N(Cc1ccc(-c2noc(C(F)(F)F)n2)s1)C1CC1 [Compound 6.56, N-cyclopropyl-2-oxo-N-[[5-[5-(trifluoromethyl)-1,2,4-oxadiazol-3-yl]-2-thienyl]methyl]butanamide]
≥ 80%: inhibition of growth at 20 ppm [1] | pest or weed control at 200 ppm [2] | pest or weed control at 200 ppm [3]

O=C(Cc1ccccc1)C(=O)N(Cc1ccc(-c2noc(C(F)(F)F)n2)s1)C1CC1 [Compound 6.57, N-cyclopropyl-2-oxo-3-phenyl-N-[[5-[5-(trifluoromethyl)-1,2,4-oxadiazol-3-yl]-2-thienyl]methyl]propanamide]
≥ 80%: inhibition of growth at 20 ppm [1] | pest or weed control at 200 ppm [2] | pest or weed control at 200 ppm [3]
